# Assay results published in US20060094787A1, “Pharmaceutical composition comprising 5-methyl-2-2'(chloro-6'-fluoroanilino) phenylacetic acid” (priority 2003, published 2006).
# Experiment: Solubility of drug substance in water / suspension
# Assay type: physicochemical
smiles,measurement,value
Cc1ccc(Nc2c(F)cccc2Cl)c(CC(=O)O)c1 [5-methyl-2-(2′-chloro-6′-fluoroanilino)phenylacetic acid],water solubility of drug substance,relatively water insoluble
